Source: US10822349B2, “Macrocyclic purines for the treatment of viral infections” (JANSSEN SCIENCES IRELAND UNLIMITED COMPANY, priority 2012, dated 2020)
Like-named read-outs stand apart in the source and are kept apart here.

What was measured:
[1] = rcm bond
[2] = system: interferon production in human PBMC; assay: Interferon production in human PBMC, read out on HEK-ISRE-luc reporter cells; assay type: cell-based; conditions: Homo sapiens, PBMC, 24 h, lowest effective concentration, PBMC supernatant after overnight incubation transferred to HEK-ISRE-luc cells, read-out: PBMC HEK-ISRE-luc (LEC; μM)
Procedure: Activation of human TLR7 results in robust production of interferon by plasmacytoid dendritic cells present in human blood. The potential of compounds to induce interferon was evaluated by determination of interferon in the conditioned media from peripheral blood mononuclear cells (PBMC). The presence of interferon in the samples was determined, using an interferon reporter cell line stably expressing an interferon-stimulated responsive elements (ISRE)-luc reporter construct. The ISRE element with sequence GAAACTGAAACT (SEQ ID: 1) is highly responsive to the STAT1-STAT2-IRF9 transcription factor, which becomes activated upon binding of IFN-I to the IFN receptor. Briefly, PBMCs were prepared from buffy coats of at least two donors using a standard Ficoll centrifugation protocol. Isolated PBMCs were resuspended in RPMI medium supplemented with 10% human AB serum and 2×10^5 cells/well were dispensed into 384-well plates containing compounds (70 μL total volume). After overnight incubation of the PBMCs with the compounds, 10 μL of supernatant was transferred to 384-well plates containing 5×10^3 HEK-ISRE-luc cells/well in 30 μL (plated the day before). Following 24 hours of incubation, activation of the ISRE elements was measured by assaying luciferase activity using 40 μL/well Steady Lite Plus substrate (Perkin Elmer) and measured with ViewLux ultraHTS microplate imager (Perkin Elmer). The stimulating activity of each compound on the HEK-ISRE-luc cells was reported as LEC. The LEC in turn indicates the degree of ISRE activation on transfer of a defined amount of PBMC culture medium. Recombinant interferon alfa-2a (Roferon-A) was used as a standard control compound.

[3] = molecular target: T1, human TLR7 (Homo sapiens, UniProt Q9NYK1); assay: TLR7 cellular reporter assay (HEK293 TLR7-NFκB-luc); assay type: cell-based; conditions: lowest effective concentration; HEK293 transiently transfected with TLR7 and NFκB-luc; 6 hours incubation
T1 construct: expressed in transfected cells; host or cells: HEK293
T1 sequence (Q9NYK1 27-1049): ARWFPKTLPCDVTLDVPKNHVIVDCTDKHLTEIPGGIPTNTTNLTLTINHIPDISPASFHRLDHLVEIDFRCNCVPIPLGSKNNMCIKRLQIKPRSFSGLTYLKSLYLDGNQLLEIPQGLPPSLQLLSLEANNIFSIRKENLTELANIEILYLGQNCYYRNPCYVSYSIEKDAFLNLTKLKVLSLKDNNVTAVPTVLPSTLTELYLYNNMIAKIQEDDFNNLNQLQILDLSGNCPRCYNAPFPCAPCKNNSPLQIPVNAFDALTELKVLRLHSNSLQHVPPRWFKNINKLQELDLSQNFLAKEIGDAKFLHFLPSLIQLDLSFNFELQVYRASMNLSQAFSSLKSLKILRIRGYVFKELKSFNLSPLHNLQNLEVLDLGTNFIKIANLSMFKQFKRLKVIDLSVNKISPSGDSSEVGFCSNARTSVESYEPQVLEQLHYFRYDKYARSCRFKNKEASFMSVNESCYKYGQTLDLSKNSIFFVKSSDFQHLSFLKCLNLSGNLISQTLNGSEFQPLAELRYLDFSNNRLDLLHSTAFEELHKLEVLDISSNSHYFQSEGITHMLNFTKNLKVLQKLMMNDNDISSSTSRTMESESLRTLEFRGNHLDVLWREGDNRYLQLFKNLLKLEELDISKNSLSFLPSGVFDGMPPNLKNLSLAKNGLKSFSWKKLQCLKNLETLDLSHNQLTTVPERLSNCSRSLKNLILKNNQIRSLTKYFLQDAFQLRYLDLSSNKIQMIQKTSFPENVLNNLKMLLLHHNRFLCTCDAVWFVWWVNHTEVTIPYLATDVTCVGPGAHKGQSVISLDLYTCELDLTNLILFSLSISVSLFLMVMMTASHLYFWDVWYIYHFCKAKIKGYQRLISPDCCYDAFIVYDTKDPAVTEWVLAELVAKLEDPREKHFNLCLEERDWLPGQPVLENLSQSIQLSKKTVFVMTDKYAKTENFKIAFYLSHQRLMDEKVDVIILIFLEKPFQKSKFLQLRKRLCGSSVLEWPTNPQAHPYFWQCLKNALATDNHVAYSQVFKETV
Procedure: The ability of compounds to activate human TLR7 and TLR8 was assessed in a cellular reporter assay using HEK293 cells transiently transfected with a TLR7 or TLR8 expression vector and NFκB-luc reporter construct. Briefly, HEK293 cells were grown in culture medium (DMEM supplemented with 10% FCS and 2 mM Glutamine). For transfection of cells in 10 cm dishes, cells were detached with Trypsin-EDTA, transfected with a mix of CMV-TLR7 or TLR8 plasmid (750 ng), NFκB-luc plasmid (375 ng) and a transfection reagent and incubated 48 hours at 37° C. in a humidified 5% CO2 atmosphere. Transfected cells were then detached with Trypsin-EDTA, washed in PBS and resuspended in medium to a density of 1.67×10^5 cells/mL. Thirty microliters of cells were then dispensed into each well in 384-well plates, where 10 μL of compound in 4% DMSO was already present. Following 6 hours incubation at 37° C., 5% CO2, the luciferase activity was determined by adding 15 μl of Steady Lite Plus substrate (Perkin Elmer) to each well and readout performed on a ViewLux ultraHTS microplate imager (Perkin Elmer). Dose response curves were generated from measurements performed in quadruplicates. Lowest effective concentrations (LEC) values, defined as the concentration that induces an effect which is at least two fold above the standard deviation of the assay, were determined for each compound.

SMILES: CCOC(=O)N1CCc2cccc(c2)OCC=CCCOc2nc(N)c([N+](=O)[O-])c1n2
- ring closure, yield of all isomers ([1]; from C=CCCOc1nc(N)c([N+](=O)[O-])c(N(CCc2cccc(OCC=C)c2)C(=O)OCC)n1, Grubbs catalyst 2nd generation, CH2Cl2, 5.2 mM, 25.0 °C, 7.0 h): 52%

SMILES: CCOC(=O)N1CCc2cccc(c2)OCC=CCOc2nc(N)c([N+](=O)[O-])c1n2
- ring closure, yield of all isomers ([1]; from C=CCOc1cccc(CCN(C(=O)OCC)c2nc(OCC=C)nc(N)c2[N+](=O)[O-])c1, Grubbs 2nd generation, dichloromethane, 5.2 mM, 25.0 °C, 36.0 h): 56.5%

SMILES: CCOC(=O)N1Cc2cc(OC)cc(c2)OCC=CCOc2nc(N)c([N+](=O)[O-])c1n2
- ring closure, yield of all isomers ([1]; from C=CCOc1cc(CN(C(=O)OCC)c2nc(OCC=C)nc(N)c2[N+](=O)[O-])cc(OC)c1, Grubbs-Hoveyda catalyst 2nd generation (with chlorodicyclohexylborane), 1,2-dichloroethane, 3.63 mM, 120.0 °C, 18.0 h): 27%

SMILES: CCOC(=O)N1Cc2ccc(F)c(c2)OCC=CCOc2nc(N)c([N+](=O)[O-])c1n2
- ring closure, yield of all isomers ([1]; from C=CCOc1nc(N)c([N+](=O)[O-])c(N(Cc2ccc(F)c(OCC=C)c2)C(=O)OCC)n1, Grubbs-Hoveyda catalyst 2nd generation (with chlorodicyclohexylborane), 1,2-dichloroethane, 5.07 mM, 120.0 °C, 3.0 h): 58%

SMILES: CCOC(=O)N1Cc2ccc(OC)c(c2)OCC=CCOc2nc(N)c([N+](=O)[O-])c1n2
- ring closure, yield of all isomers ([1]; from C=CCOc1nc(N)c([N+](=O)[O-])c(N(Cc2ccc(OC)c(OCC=C)c2)C(=O)OCC)n1, Grubbs catalyst 2nd generation, CH2Cl2, 3.63 mM, 25.0 °C, 66.0 h): 7.6%

SMILES: CCOC(=O)N1Cc2cccc(c2)CC=CCCC(CO[Si](C)(C)C(C)(C)C)Nc2nc(N)c([N+](=O)[O-])c1n2 (centres unmarked)
- ring closure, yield of all isomers ([1]; from C=CCCC(CO[Si](C)(C)C(C)(C)C)Nc1nc(N)c([N+](=O)[O-])c(N(Cc2cccc(CC=C)c2)C(=O)OCC)n1, Grubbs catalyst 2nd generation, CH2Cl2, 7.83 mM, 25.0 °C, 24.0 h): 70%

SMILES: CCOC(=O)N1Cc2cccc(c2)CC=CCCCOc2nc(N)c([N+](=O)[O-])c1n2
- ring closure, yield of all isomers ([1]; from C=CCCCOc1nc(N)c([N+](=O)[O-])c(N(Cc2cccc(CC=C)c2)C(=O)OCC)n1, Grubbs catalyst 2nd generation, CH2Cl2, 3.13 mM, 25.0 °C, 2.0 h): 73%

SMILES: CCOC(=O)N1Cc2cccc(c2)CC=CCCOc2nc(N)c([N+](=O)[O-])c1n2
- ring closure, yield of all isomers ([1]; from C=CCCOc1nc(N)c([N+](=O)[O-])c(N(Cc2cccc(CC=C)c2)C(=O)OCC)n1, Grubbs catalyst 2nd generation, CH2Cl2, 3.14 mM, 25.0 °C, 16.0 h): 27.4%

SMILES: CCOC(=O)N1Cc2cccc(c2)OCC=CCOc2nc(N)c([N+](=O)[O-])c1n2
- ring closure, yield of all isomers ([1]; from C=CCOc1cccc(CN(C(=O)OCC)c2nc(OCC=C)nc(N)c2[N+](=O)[O-])c1, Hoveyda-Grubbs 2nd generation (with chlorodicyclohexylborane), 1,2-dichloroethane, 4.22 mM, 120.0 °C, 4.0 h): 36%

SMILES: CCOC(=O)N1Cc2ncccc2OCC=CCCOc2nc(N)c([N+](=O)[O-])c1n2
- ring closure, yield of all isomers ([1]; from C=CCCOc1nc(N)c([N+](=O)[O-])c(N(Cc2ncccc2OCC=C)C(=O)OCC)n1, Hoveyda-Grubbs 2nd generation (with chlorodicyclohexylborane), 1,2-dichloroethane, 3.74 mM, 80.0 °C, 1.0 h): 70%

SMILES: CCOC(=O)N1Cc2ncccc2OCCC=CCOc2nc(N=P(c3ccccc3)(c3ccccc3)c3ccccc3)c([N+](=O)[O-])c1n2
- ring closure, yield of all isomers ([1]; from C=CCCOc1cccnc1CN(C(=O)OCC)c1nc(OCC=C)nc(N=P(c2ccccc2)(c2ccccc2)c2ccccc2)c1[N+](=O)[O-], Hoveyda-Grubbs 2nd generation (with chlorodicyclohexylborane), 1,2-dichloroethane, 2.98 mM, 120.0 °C, 31.0 h): 54%

SMILES: CCOc1nc2c(N)nc3nc2n1Cc1cccc(c1)CC=CCCCn1ccnc1-3
- ring closure, yield of all isomers ([1]; from C=CCCCn1ccnc1-c1nc(N)c2nc(OCC)n(Cc3cccc(CC=C)c3)c2n1, Grubbs catalyst 2nd generation, CH2Cl2, 3.76 mM, 25.0 °C, 24.0 h): 5%

SMILES: COc1nc2c(N)nc3nc2n1Cc1cccc(c1)CC=CCCO3
- ring closure, yield of all isomers ([1]; from C=CCCOc1nc(N)c2nc(OC)n(Cc3cccc(CC=C)c3)c2n1, Grubbs catalyst 2nd generation, CH2Cl2, 3.42 mM, 24.0 h): 23%

SMILES: Nc1nc2nc3c1ncn3Cc1cccc(c1)CC=CCCO2
- ring closure, yield of all isomers ([1]; from C=CCCOc1nc(N)c2ncn(Cc3cccc(CC=C)c3)c2n1, Hoveyda-Grubbs 2nd generation (with chlorodicyclohexylborane), 1,2-dichloroethane, 2.98 mM, 120.0 °C, 23.0 h): 34%

SMILES: Nc1nc2nc3c1ncn3Cc1ncccc1OCC=CCCO2
- ring closure, yield of all isomers ([1]; from C=CCCOc1nc(N)c2ncn(Cc3ncccc3OCC=C)c2n1, Grubbs-Hoveyda catalyst 2nd generation (with chlorodicyclohexylborane), 1,2-dichloroethane, 3.04 mM, 120.0 °C, 10.0 h): 5%

SMILES: Nc1nc2nc3c1nc(O)n3CCc1cccc(c1)CCCCCO2 [Compound 83]
- minimal effective concentration [2]: 2.66 µM
- HEK293 TLR7-NFκB-luc (LEC; μM) [3]: >25 µM

SMILES: Nc1nc2nc3c1nc(O)n3CCc1cccc(c1)OC/C=C\CO2 [Compound 84]
- minimal effective concentration [2]: 0.51 µM
- HEK293 TLR7-NFκB-luc (LEC; μM) [3]: 3.4 µM

SMILES: CN1CCOC(=O)Cc2cccc(c2)Cn2c(O)nc3c(N)nc1nc32 [Compound 85]
- minimal effective concentration [2]: 12.5 µM
- HEK293 TLR7-NFκB-luc (LEC; μM) [3]: 0.33 µM

SMILES: Nc1nc2nc3c1nc(O)n3CCc1cccc(c1)OC/C=C/CCO2 [Compound 86]
- minimal effective concentration [2]: 2.43 µM
- HEK293 TLR7-NFκB-luc (LEC; μM) [3]: 7.91 µM
